From paper PMC7292393 (PLoS ONE, 2020)
“Also recorded” adds a separate entry of the source.

Tests used:
human SUMO1 [1] = target: T1, human SUMO1 (Homo sapiens, UniProt P63165); assay: Surface plasmon resonance (SPR) primary screen; type: binding;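 note: recombinant human SUMO1 amine-coupled to a sensor chip, blank activated and quenched reference flow cell, flavonoids injected 2 min then 1 min dissociation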
T1 construct: encoding amino acids 1–97 of mature human SUMO1; host or cells: E. coli BL21 Rosetta (DE3)

human SUMO1 [2] = target: T1, human SUMO1; assay: Differential scanning fluorimetry (DSF) thermal shift; type: binding
bovine ubiquitin [3] = target: T2, bovine ubiquitin (Bos taurus, UniProt P0CG53); assay: SPR binding to ubiquitin surface; settings: Fig 2J
T2 construct: native bovine ubiquitin (U6253); purchased Sigma-Aldrich U6253
Experimental: All injections were performed in a Biacore T200 (GE Healthcare, Chicago, IL) at a flow rate of 20 μl/min in running buffer (20 mM Hepes (pH 7.4), 150 mM NaCl, 5 mM MgCl2, 0.0005% Tween 20) at 25°C. CMD200 and HC1500 sensor chips (Zantec Bioanalytics, Duesseldorf, Germany) were used for the primary and secondary SPR screens and for obtaining SPR sensograms shown in Fig 2I and 2J, respectively. SUMO1 surface in CMD-200 sensor chip and HC1500 sensor chip were generated with immobilization levels 10887 and 19639 resonance units (RU), respectively. Ubiquitin surface in HC1500 sensor chip was generated with 6106 RU. Human SUMO1 and bovine ubiquitin biosensors were prepared by standard amine coupling chemistry as follows: An equal volume of 0.1 M N-hydroxysuccinimide (NHS) and 0.4 M ethyl(dimethylaminopropyl) carbodiimide was injected for 7 min at 5 μl/min over a single flow cell. Following this step, human SUMO1 or bovine ubiquitin (100 μg/ml in pH 4.5 acetate buffer) was injected for 15 min, immediately followed by a 7 min injection of 1M ethanolamine (pH 9). […] RUmax was calculated as 8320/MW ratio, where 8320 is AU of human SUMO1 immobilized onto the chip and MW ratio is the ratio of MW (Da) of SUMO1 to flavonoid. […]

SUMO1^Δ15 = target: T3, SUMO1^Δ15 (Homo sapiens, UniProt P63165); assay: Differential scanning fluorimetry (DSF) thermal shift; type: binding; settings: 2 μM SUMO1^Δ15, fisetin 20 to 200 μM
T3 construct: encoding amino acids 1–97 of mature human SUMO1; made in house; host or cells: E. coli BL21 Rosetta (DE3)
Experimental: Here we used a variant of the human SUMO1 called SUMO1^Δ15 in which the N-terminal 15 amino acids of SUMO1 are removed. The first 15 amino acids of human SUMO1 are weakly conserved and reported to be unstructured, and so therefore might contribute to its instability. […] We next compared SUMO1^Δ15 directly with wild-type SUMO1.
Fluorescence-based thermal shift assays known as differential scanning fluorimetry (DSF) were performed following the general protocol described in [28]. In short, 20 μl reactions were prepared with 2 μM human SUMO1 or SUMO1^Δ15 protein exchanged in DSF buffer (50 mM Tris-Cl pH 8.0, 150 mM NaCl, 10% glycerol), 10X SYPRO Orange (ThermoFisher Scientific, Waltham, MA), and 0.3 μl of DMSO control or flavonoid dissolved in DMSO. PCR plates (white non-skirted, 96-well) were sealed with optical film, centrifuged, and incubated at 4 °C for 30 min prior to analysis. Thermal scanning (20°C for 30 s, followed by ramping from 20 °C to 90 °C at 0.5 °C/15 s) was performed using a real-time PCR setup (CFX384 Touch, Biorad, Hercules, CA) with filter sets for measurement of relative fluorescence units (RFU) at 0.5°C intervals. Tm was calculated from the maxima of the first derivative of RFU/temperature using GraphPad Prism7. For the HSF1 denaturation experiment, recombinantly expressed and affinity purified human HSF1 was exchanged in DSF buffer. […]

human SUMO1 [4] = target: T1, human SUMO1; assay: Fluorescence quenching of fisetin; type: binding; settings: 0.5 μM fisetin, emission 511.5 nm, corrected for dilution
Experimental: (§1) The spectrum between 390–600 nm was measured with a PerkinElmer LS-55 fluorescence spectrometer. […] Excitation and emission slit wavelengths were 5 and 10 nm, respectively, with scan speed of 500 nm/min. […] Values were corrected for dilution as follows: Relative fluorescence values were calculated by subtracting fluorescence quenching observed upon addition of buffer alone.

bovine ubiquitin [5] = target: T2, bovine ubiquitin; assay: Fluorescence quenching of fisetin; type: binding; settings: 0.5 μM fisetin, corrected for dilution
Experimental: as §1

T1 sequence (P63165 1-97): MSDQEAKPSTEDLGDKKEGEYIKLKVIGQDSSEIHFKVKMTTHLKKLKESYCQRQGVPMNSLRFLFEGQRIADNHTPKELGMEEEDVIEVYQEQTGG
T3 sequence (P63165 with tags, fused parts or gaps limits assumed): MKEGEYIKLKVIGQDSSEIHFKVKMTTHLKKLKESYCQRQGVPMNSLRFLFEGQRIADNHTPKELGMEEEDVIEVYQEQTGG

%RUmax (human SUMO1 [1]; SPR primary screen, 500 μM flavonoid in DMSO, (Mean RU/RUmax)*100): 18.9%
ΔTm at 300 µM (human SUMO1 [2]): < 2 °C
SPR binding to bovine ubiquitin (bovine ubiquitin [3]): failed to bind to bovine ubiquitin
SPR binding to bovine ubiquitin (bovine ubiquitin [3]; listed as fisetin): no appreciable binding
dose-dependent effect on DSF thermogram of SUMO1^Δ15 (SUMO1^Δ15): thermal destabilization
quenching of fisetin fluorescence by SUMO1 (human SUMO1 [4]): Saturable binding was observed
quenching of fisetin fluorescence by ubiquitin (bovine ubiquitin [5]): only marginal quenching
SMILES: O=c1c(O)c(-c2ccc(O)c(O)c2)oc2cc(O)ccc12 [Fisetin, 3,3',4',7-tetrahydroxyflavone]
SPR Screens 1° (human SUMO1 [1]; 500 μM flavonoid in DMSO, cut-off of %RUmax of ~15): ✓ (%RUmax with binding activity above cut-off)
interaction in SPR primary screen (human SUMO1 [1]; 500 μM, %RUmax above threshold of ~15%): interacted with SUMO1 in the primary screen
effect on DSF thermogram / thermal stability of SUMO1 (human SUMO1 [2]; 2 μM SUMO1, 300 μM flavonoid): cause unfolding of human SUMO1; also recorded: unfolding of the protein at ambient temperature
